Laboratory results as given in patent US12458614B2, “Therapeutic agents for improved mobility and cognitive function and for treating neurodegenerative diseases and lysosomal storage disorders” (priority 2017, dated 2025).

Columns and labels:
[1] = tested on: Sandhoff disease model, Hexb−/− mouse; assay: Bar crossing test; assay type: in vivo; settings: Sandhoff mice, 0.1 g/kg from 3 weeks of age
Text: This study made use of a mouse model of Sandhoff disease, the Hexb^−/− mouse, as descrbed in Jeyakumar et al. (Jeyakumar, M. et al. (1999) Proc. Natl. Acad. Sci. USA 96: 6388-6393). The bar crossing test is a method for assessing motor function in mice in which the mouse is placed hanging from the centre of a horizontal bar by its front limbs. A wild-type mouse with normal motor function will be able to engage its hind limbs and thereby move to one of the platforms at either end of the bar, and in doing so complete the test. […] In FIG. 7 B, acetyl-leucine treatment of 0.1 g/kg body weight was provided from 3 weeks of age. The acetyl-leucine treated Sandhoff mice retained the ability to complete the test up to 13 weeks of age (inclusive). Data shown is the mean of 6 mice per group. The treated Sandhoff mice retained the ability to complete the test up to 13 weeks of age (inclusive).

[2] = tested on: Sandhoff disease model, Hexb−/− mouse; assay: Lifespan of Sandhoff mouse; assay type: in vivo; settings: 0.1 g/kg from 3 weeks of age, p<0.05 vs untreated
Description: This study made use of a mouse model of Sandhoff disease, the Hexb^−/− mouse, as descrbed in Jeyakumar et al. (Jeyakumar, M. et al. (1999) Proc. Natl. Acad. Sci. USA 96: 6388-6393).
In FIG. 7A, acetyl-leucine-treated mice were treated with 0.1 g/kg acetyl-leucine from 3 weeks of age. The asterisks (*) indicates a p-value of <0.05 vs untreated Sandhoff mice. Data is average of n=6 mice per group. Without treatment, the median survival time of Sandhoff mice was 112 days. Treatment with acetyl-leucine (0.1 g/kg body weight since 3 weeks of age) increased the median lifespan to 120 days.

[3] = tested on: patient with Spinocerebellar Ataxia (SCA) 1; assay: Case study, Spinocerebellar Ataxia (SCA) 1; assay type: in vivo, human
[4] = tested on: patients with progressive supranuclear palsy; assay: Case studies, progressive supranuclear palsy; assay type: in vivo, human
[5] = tested on: patients with Niemann-Pick Type C (NPC); settings: one-month study, 12 NPC patients (Bremova 2015); cited from earlier work
[6] = tested on: Npc1−/− mouse; assay: Lifespan; assay type: in vivo; settings: 0.1 g/kg from 3 weeks of age
Text: Separate groups of Npc1^−/− and Npc1^+/+ mice were left untreated, as controls.

[7] = tested on: patient with Lewy Body dementia; assay: Case study, Lewy Body dementia; assay type: in vivo, human; settings: Lewy Body dementia patient
Description: The patient started taking acetyl-leucine (3 g/day for one week; 5 g/day thereafter) and was evaluated after four weeks. […] Medication was reduced to 3 g/day, and the patient was instructed to stop medication about two weeks later.

[8] = tested on: person with balance disorder/senile gait disorder; assay: Case study Example 23; assay type: in vivo, human
[9] = tested on: person with gait problems and postural imbalance; assay: Case study Example 25, quantitative gait analysis; assay type: in vivo, human
Description: The patient was then treated with Tanganil® (500 mg) in 3 separate doses throughout the day—1 g upon waking, 1 g prior to lunch and 1 g prior to the evening meal for one week, followed by 2 g upon waking, 1.5 g prior to lunch and 1.5 g prior to the evening meal.

[10] = tested on: patient with progressive gait disorder; assay: Case study Example 26, quantitative gait analysis; assay type: in vivo, human
[11] = tested on: wild-type (Npc1+/+) mice; assay: Gait analysis (CatWalk); assay type: in vivo, mouse; settings: eight weeks of age
Description: (§1) Separate groups of Npc1^−/− and Npc1^+/+ mice were left untreated, as controls. Gait analysis was performed on mice at eight weeks of age using a CatWalk® 15.0 system according to manufacturer's instructions (Noldus, Nottingham, UK). Five runs were recorded per animal. CatWalk® parameters measured were: • 1. Stand Mean: average duration (s) of paws in contact with glass plate; • 2. Step Cycle: duration (s) between two consecutive contacts of the same paw; • 3. Duty Cycle: percentage of time paws in contact with plate compared with time to complete a step cycle; • 4. Step Sequence (AB): percentage of time spent walking in LF-RH-RF-LH alternating pattern (LF: left front; RH: right hind; RF: right front; LH left hind); • 5. Cadence: step per seconds in a trial; • 6. Diagonal Support: percentage of time with simultaneous contact of diagonal paws with the glass plate (RF&LH or RH&LF). Motor Function Analysis

[12] = tested on: Npc1−/− mice; assay: Gait analysis (CatWalk); assay type: in vivo, mouse; settings: eight weeks of age
Description: as §1

[13] = tested on: Mucolipidosis Type IIIA (MLIIIA) patient fibroblasts; assay: Lysosomal volume via LysoTracker; assay type: cell-based, human; settings: 1 mM, 6 days
[14] = tested on: patients with multiple system atrophy Parkinson type (MSA-P); assay: Case studies, multiple system atrophy Parkinson type; assay type: in vivo, human; settings: MSA-P Patient 3, after one month
Text: Medication was stopped. […] The patient evaluated after one month on acetyl-DL-leucine. […] Episodes of mental confusion completely disappeared. The patient's cognitive structure seemed much clearer and straighter. […] The patient's spouse supported continuing the medication.

[15] = tested on: AB variant of Tay-Sachs disease patient fibroblasts; assay: Glycosphingolipid (GSL) levels via HPLC; assay type: cell-based, human; settings: 1 mM for 6 days
[16] = tested on: fibroblasts from NPC patients; assay: Relative lysosomal volume via LysoTracker; assay type: cell-based, human; settings: 1 mM
Description: A fibroblast cell line from an NPC patient was treated for 3 days with N-acetyl-DL-leucine (1 mM) and relative lysosomal volume was quantified via LysoTracker, a fluorescent dye that accumulates in acidic organelles. Increased LysoTracker fluorescence is indicative of an increase in lysosomal size and/or number, and is a hallmark of NPC cells.

With `CC(=O)NC(CC(C)C)C(=O)O` (racemic) [acetyl-DL-leucine] the “Age up to which ability to complete the bar crossing test was retained (inclusive)” value [1] was “up to 13 weeks of age”, the “Motor function and hind-limb mobility/engagement, bar-crossing test” value [1] was “improved motor function and hind-limb mobility/engagement” and the “Lifespan of the Sandhoff mouse” value [2] was “statistically significant increase in the lifespan”. The Symptoms ([3]; three weeks on medication, 5 g/day) was “all symptoms significantly improved”, the “Intensity of signs and symptoms after stop” value ([3]; two weeks after medication was stopped) was “the same as before therapy” and the “Symptoms after stopping medication” value ([4]; PSP Patient 2, about two months later) was “no deterioration of symptoms after stopping medication”. For the same molecule, the “Symptoms after stopping medication” value ([4]; PSP Patient 3, about two months later) was “no deterioration of symptoms after stopping medication”, the ataxia symptoms [5] was “symptomatic improvement of ataxia” and the Lifespan [6] was “small but statistically significant increase in lifespan”. The “Patient report on treatment” value ([7]; after four weeks, 3 g/day then 5 g/day) was “increased fatigue and a deterioration of balance and speech”, the “Patient report on decreased dose” value ([7]; reduced to 3 g/day) was “did not report improvement of symptomatology with the decreased dose” and the Frequency of falls ([8]; Day 14) was “significant reduction in the frequency of falls”. The Hypokinetic-rigid syndrome ([8]; Day 14) was “No change of hypokinetic-rigid syndrome”, the Dizziness symptoms ([8]; Day 14, 3 then 5 gram per day) was “improvement of dizziness symptoms” and the Dizziness after suspension ([8]; two days after suspension of treatment) was “increase of dizziness symptoms”. The Tolerability ([9]; 3 g/day one week then 5 g/day) was “very well tolerated”, the “Gait and imbalance (patient and child report)” value ([9]; 3 weeks after beginning treatment) was “gait and imbalance was significantly improved” and the “% of the time in the gait cycle in which both feet are in contact with the ground” value ([9]; after 3 weeks' treatment) was 25.5%. The Cadence ([9]; after 3 weeks' treatment) was 100 steps/minute, the “Coefficient of variation (CV) of stride time” value ([9]; after 3 weeks' treatment) was 1.8 and the Maximum walking speed ([9]; after 3 weeks' treatment) was 157 cm/s. It also gave a Natural walking speed ([9]; after 3 weeks' treatment) of 96 cm/s, a Spreading width ([9]; after 3 weeks' treatment) of 8.1 cm and a Step cycle length ([9]; after 3 weeks' treatment) of 116 cm. For the same molecule, the “Gait (patient and spouse report)” value ([10]; 3 gram per day for two weeks) was “considerable improvement of gait”, the “Functioning and quality of living (spouse report)” value ([10]; Day 42, 3 gram per day restarted) was “dramatic improvement” and the Self-chosen gait velocity ([10]; Day 42, from 55 cm/sec) was 62 cm/s. The Maximal gait velocity ([10]; Day 42, from 84 cm/sec) was 130 cm/s, the “Symptoms after medication was stopped” value ([10]; in vivo) was “worsening of symptoms” and the “Gait properties vs untreated littermates” value [11] was “no significant difference in gait properties”. For the same molecule, the “Gait properties vs untreated littermates” value [12] was “significantly improved gait”, the “LysoTracker fluorescence vs untreated disease fibroblasts” value [13] was “trend in reducing LysoTracker fluorescence toward control level” and the “Cognitive function (reported by wife)” value [14] was “significant improvement of cognitive function”. The Gait function [14] was “no improvement of gait function”, the GSL levels [15] was “trend towards decreased GSL levels” and the “LysoTracker fluorescence (lysosomal volume)” value ([16]; NPC patient of mild clinical severity) was “significant decrease in LysoTracker fluorescence”. For the same molecule, the “LysoTracker fluorescence (lysosomal volume)” value ([16]; additional NPC patients of variable clinical severity, 72 hours) was “findings were replicated”.
